The values that follow come from patent US20220273716A1, “POPULATIONS OF NATURAL KILLER CELLS COMPRISING A CD38 CHIMERIC ANTIGEN RECEPTOR” (Celularity Inc., priority 2019, published 2022).

Data set [1] has as its system CD34+ cells. Put plainly: NK cell expansion from CD34+ cells in three-stage culture with compound. Format: cell-based, human. The settings on record: for support of NK expansion (and differentiation) / cell expansion compared to SR1: compound 10 μM during first 14 days, Day 35; for expansion, differentiation and cytotoxicity profile versus SR1: PNK-007 culture; for cell expansion compared to SR1: SR1 10 μM positive control. An excerpt: (§1) UCB CD34+ cells were cultivated in presence of cytokines including thrombopoietin, SCF, Flt3 ligand, IL-7, IL-15 and IL-2 for 35 days to produce three-stage NK cells, as described in Example 1. Multi-color flow cytometry was used to determine the phenotypic characteristics of three-stage NK cells.
(§2) For biological testing, the compounds were provided to culture to evaluate their effects on NK cell expansion and differentiation. Specifically, donors of CD34+ cells (StemCell Technology) were thawed and expanded in vitro following NK culture protocol. During the first 14 days of the culture, each CRL compounds was dissolved in DMSO and added to the culture at 10 μM concentration. SR1 (at 10 μM) served as a positive control compound, while DMSO alone without any compound served as a negative control. At the end of the culture on Day 35, cell expansion, natural killer (NK) cell differentiation and cytotoxicity of the cells against K562 tumor cell line were characterized. Due to the large number of the compounds, the testing was performed in two experiments, CRL1-11 and CRL 12-22. The same donors were used for each experiment. Positive and negative controls were also included in both experiments.

The subject of a further data set is multiple myeloma. Particulars: cited from earlier work.
The next data set has as its system CD34 cells. Put plainly: CD34 cell expansion at Day 14 of the culture. The settings on record: compound 10 μM. Format: cell-based, human. As to the method:
as §2

In a further data set the test system is K562 tumor cells. Nature of the data set: Cytotoxicity assay of compound cultured cells against K562 tumor cells. The format is cell-based. The settings on record: 10:1 E:T ratio, both donors. Here is the method: as §2
Cytotoxicity assay was run using compound cultured cells against K562 tumor cells at 10:1 effector to target ratio (FIG. 5) to evaluate cell functions.

Data set [2] concerns CD34+ cells. Put plainly: NK cell differentiation of compound cultured cells (flow cytometry). The format is cell-based, human. The settings on record: compared to SR1.
Source text: as §1, §2
Background: A flow cytometer gives signals particle by particle.

Entries after “also recorded” stand apart in the source; their conditions may differ. Read-outs that look alike come from different tables or passages of the source.

`CCC(C)Nc1nc(NCCc2c[nH]c3ccccc23)c2ccccc2n1` (stereo not drawn) [CRL13, N^4-(2-(1H-indol-3-yl)ethyl)-N^2-(sec-butyl)quinazoline-2,4-diamine]: the “support of NK expansion (and differentiation)” value (from here on “support … (and differentiation)”) in the data set on CD34+ cells [1] was “Except for CRL7 and CRL13, the rest of the compounds all resulted in a NK expansion; also recorded: all the compounds except CRL7 and CRL13 supported PNK-007 expansion and differentiation”.
Take `Nc1cccc2c1CN(C1CCC(=O)NC1=O)C2=O` (stereo not drawn) [lenalidomide, 3-(4′aminoisoindoline-1′-one)-1-piperidine-2,6-dione]: the “ORR (VGPR or better)” value in the data set with multiple myeloma (1 year post ASCT) is listed as 48%; in the data set on multiple myeloma (2 year post ASCT), 36%. Also, in the data set with multiple myeloma (95% CI 0.46-0.71), the “hazard ratio (TTP, vs placebo)” value was 0.57. The “median TTP” value in the data set with multiple myeloma (not accounting for crossover) is reported as 57.3 months.
As to `Fc1cncc(-c2nc(NCCc3c[nH]c4ccccc34)c3occc3n2)c1` [CRL19, N-(2-(1H-indol-3-yl)ethyl)-2-(5-fluoropyridin-3-yl)furo[3,2-d]pyrimidin-4-amine], the CD34 cell expansion entry with CD34 cells was “achieved the highest CD34 cell expansion”. In addition, in the data set with CD34+ cells [1], the “expansion, differentiation and cytotoxicity profile versus SR1” value is “very similar expansion, differentiation and cytotoxicity profiles as SR1”; the “support … (and differentiation)” value was “supported cell expansion the best”.
In the case of `Cc1cncc(-c2nc(NCCc3c[nH]c4ccccc34)c3occc3n2)c1` [CRL20, N-(2-(1H-indol-3-yl)ethyl)-2-(5-methylpyridin-3-yl)furo[3,2-d]pyrimidin-4-amine], the CD34 cell expansion entry with CD34 cells was “achieved the highest CD34 cell expansion”. In the data set on CD34+ cells [1], the “expansion, differentiation and cytotoxicity profile versus SR1” value is “very similar expansion, differentiation and cytotoxicity profiles as SR1”; the “support … (and differentiation)” value was “supported cell expansion the best”.
As for `CC(C)c1csc2c(NCCc3c[nH]c4ccccc34)nc(-c3cncc(C#N)c3)nc12` [CRL17, 5-(4-((2-(1H-indol-3-yl)ethyl)amino)-7-isopropylthieno[3,2-d]pyrimidin-2-yl)nicotinonitrile], in the data set with K562 tumor cells, the “killing activity compared to cells cultured with SR1” value is “increased killing activities”. Further, the “cell expansion compared to SR1” value in the data set on CD34+ cells [1] is listed as “slightly less expansion compared to SR1”. Further, the “CD56+/CD11a+ subpopulation” value with CD34+ cells [2] is recorded as “increased CD56+/CD11a+ subpopulation”.
Regarding `CCC(C)Nc1cc(-c2cncc(C#N)c2)nc(NCCc2c[nH]c3ccccc23)n1` (stereo not drawn) [CRL7, 5-(2-((2-(1H-indol-3-yl)ethyl)amino)-6-(sec-butylamino)pyrimidin-4-yl)nicotinonitrile], in the data set on CD34+ cells [1], the “support … (and differentiation)” value is “Except for CRL7 and CRL13, the rest of the compounds all resulted in a NK expansion; also recorded: all the compounds except CRL7 and CRL13 supported PNK-007 expansion and differentiation”.
In the case of `Cc1cncc(-c2nc(NCCc3c[nH]c4ccccc34)c3scc(C(C)C)c3n2)c1` [CRL21, N-(2-(1H-indol-3-yl)ethyl)-7-isopropyl-2-(5-methylpyridin-3-yl)thieno[3,2-d]pyrimidin-4-amine], the “killing activity compared to cells cultured with SR1” value in the data set with K562 tumor cells is reported as “increased killing activities”. Also, the “cell expansion compared to SR1” value in the data set on CD34+ cells [1] is listed as “slightly less expansion compared to SR1”. The “CD56+/CD11a+ subpopulation” value in the data set on CD34+ cells [2] is listed as “increased CD56+/CD11a+ subpopulation”.
The matching figures for `CC(C)c1csc2c(NCCc3c[nH]c4ccccc34)nc(-c3cncc(F)c3)nc12` [CRL18, N-(2-(1H-indol-3-yl)ethyl)-2-(5-fluoropyridin-3-yl)-7-isopropylthieno[3,2-d]pyrimidin-4-amine]: “increased killing activities”, “slightly less expansion compared to SR1” and “increased CD56+/CD11a+ subpopulation”.
Take `N#Cc1cncc(-c2nc(NCCc3c[nH]c4ccccc34)c3occc3n2)c1` [CRL22, 5-(4-((2-(1H-indol-3-yl)ethyl)amino)furo[3,2-d]pyrimidin-2-yl)nicotinonitrile]: in the data set with CD34 cells, the CD34 cell expansion result is reported as “achieved the highest CD34 cell expansion”. Moreover, in the data set with CD34+ cells [1], the “expansion, differentiation and cytotoxicity profile versus SR1” value is “very similar expansion, differentiation and cytotoxicity profiles as SR1”; the “support … (and differentiation)” value is reported as “supported cell expansion the best”.
